Measurements from patent publication US20190302100A1, “METHOD FOR PREPARING LIVER PROGENITOR CELLS” (National Cancer Center, priority 2016, published 2019).

Legend:
CYP1A2 = test: Activity of metabolic enzyme CYP1A2 (Luciferin 1A2 kit) in hepatocytes taken out from transplanted cDNA-uPA/SCID mice; format: cell-based, human
From the text: After that, cDNA-uPA/SCID mice (2 to 4 M, Male; manufactured by PhoenixBio Co., Inc.) were subjected to laparotomy under isoflurane anesthesia, the spleen was exposed, 0.5×10^5 to 2×10^6 liver progenitor cells per mouse were implanted, and then the abdomen was sutured. On day 73 after implantation, the liver was removed and perfused. Hepatocytes were separated, and cultured for 4 days on 24-well collagen plates (manufactured by IWAKI) at 4×10^5 cells/well using 2% FBS-SHM medium.
(§1) For the hepatocytes taken out from the mice, the activity of the metabolic enzyme CYP1A2 was measured using methanol (MeOH, at a concentration of 1%) and omeprazole (OMP, 50 μM). […] The activities of these metabolic enzymes were measured with Luciferin 1A2 kit and Luciferin-IPA kit from Promega, respectively.

CYP3A4 = system: CYP3A4
Procedure: On day 73 after implantation, the liver was removed and perfused. Hepatocytes were separated, and cultured for 4 days on 24-well collagen plates (manufactured by IWAKI) at 4×10^5 cells/well using 2% FBS-SHM medium.
as §1

| Structure (SMILES) | CYP1A2 induction (CYP1A2; Example 14: cells from donor 10 M, omeprazole 50 μM vs methanol 1%) | CYP1A2 induction (CYP1A2; Example 15: cells from donor 8 M, as in Example 14) | CYP3A4 induction (CYP3A4) |
| --- | --- | --- | --- |
| COc1ccc2[nH]c([S+]([O-])Cc3ncc(C)c(OC)c3C)nc2c1 (stereo not drawn) [omeprazole] | induced | induced |  |
| CCC1(c2ccccc2)C(=O)NC(=O)NC1=O [phenobarbital] |  |  | induced |
